Results reported in patent US12679801B2, “Amino lipid and preparation method and application thereof” (Shenzhen MagicRNA Biotechnology Co., Ltd., priority 2022, dated 2026).

What was measured:
BMDC primary cells [1] = assay: Luc mRNA LNP transfection on BMDC primary cells (Embodiment 13, Table 3); type: cell-based, C57BL/6 mice; conditions: 16 h, ONE-Glo Luciferase
Summary of the method: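 Bone-marrow dendritic cells from female C57BL/6 mice were cultured 7 days with GM-CSF (20 ng/mL) and IL-4 (10 ng/mL). Cells were then exposed to luciferase mRNA LNPs for 16 h at 37° C., 5% CO2. Transfection was read as ONE-Glo luminescence.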

B16-OVA melanoma cells [2] = assay: OVA mRNA LNP vaccine, in-vivo immunity and tumor treatment (Embodiment 15); design: species or system C57BL/6 mice; conditions: B16-OVA tumor-bearing mice, two intramuscular injections of LNP with 1 μg OVA-mRNA, 7 days apart
Procedure: Preparation method: the amino lipid compounds of the disclosure, DSPC, cholesterol and PEG2000-DMG were mixed according to a mole ratio of 50:10:38.5:1.5 and were dissolved in absolute ethyl alcohol. OVA mRNA was dissolved in a sodium acetate buffer solution (50 nM, pH=4.0). The obtained ethyl alcohol solution and the acetate buffer solution […] were mixed in a micro-fluidic chip according to a volume ratio of 1:3 by using a micro-fluidic preparation system to obtain lipid nanoparticles. Then, dialysis was performed for 6 h under the conditions of 1×PBS and temperature was controlled at 4° C. by using a dialysis cassettes or box (MWCO 20,000). Filtration was performed by a 0.22 μm microporous filtering membrane prior to use. The mass ratio of the amino lipid compound to OVA mRNA was about 10:1.
(§1) Animal preparation: 5-6-week-old female C57BL/6 mice with the body weight about 18 to 20 g were selected. The feeding environment was an SPF stage feeding room. Animal tests were strictly performed according to the guide of the national health institute and the animal ethics requirements.
(§2) In-vivo delivery: B16-OVA melanoma cells (1.5×10^5) were injected to the outer thighs of the mice through subcutaneous injection. When the tumor grew to 50 mm^3 (on the about 6th or 7th day after tumor inoculation), the mice began to inoculated vaccines, the animals were subjected to twice immunization through intramuscular injection of an LNP preparation containing 1 μg OVA-mRNA. An interval between first and second injections was 7 days. The tumor growth was measured for 3 times every week by a digital display calliper, and a calculation formula was […]. When the tumor size reached 1500 mm^3, the mice received euthanasia. Additionally, 60% of mice (E7C71A9 group) and 40% of mice (E6C71A12 group) respectively reached the complete relieving effect.

BMDC primary cells [3] = assay: Luc mRNA LNP transfection on BMDC primary cells (Embodiment 21, Table 9); type: cell-based, C57BL/6 mice; conditions: 16 h, ONE-Glo Luciferase
Procedure: Preparation method: the same as that in Embodiment 17.
Animal preparation: 6-week-old female C57BL/6 mice with the body weight about 20 g were selected. A feeding environment was an SPF stage feeding room. Animal tests were strictly performed according to the guide of the national health institute and the animal ethics requirements.
Cell acquisition: C57BL/6 mice were killed through cervical dislocation, and were soaked for 5 min in 75% ethyl alcohol. Dissection was performed to obtain thigh and calf tibiae of the mice. Attached muscles were removed to expose sclerotin. Then, bone marrow in tibiae was blown out by using a 1 mL injector sucked with PBS. After the bone marrow was blown away, impurities were filtered away by a 50 μm filter screen. A red blood cell lysis buffer (3-4 mL) was added into an obtained filtrate. Then, after placement for 5 min, 800 g centrifugation was performed for 5 min to remove a supernatant. The obtained cells were placed into a 1640 culture medium (containing 10% fetal calf serum, 20 ng/mL GMCSF and 10 ng/mL IL4) to be resuspended, and were inoculated into a 6-well plate at an inoculation density of 100000 cells/ml culture medium. The materials were placed into a 37° C. cell incubator containing 5% CO2. Half liquid change was performed once every 2 days. Suspended cells and loose wall attached cells were collected on the seventh day, and were inoculated to a 96-well all-white ELISA plate at the inoculation density of 20000 cells per well, and the volume of a culture medium was 100 μL.
Cell transfection: lipid nanoparticles coated with luciferase mRNA were added into a 96-well white ELISA plate laid with primary cells. The adding volume of the mRNA lipid nanoparticles in each well was controlled to be 10 μL. Then, the materials were put into a 37° C. incubator containing 5% CO2 for 16 h.
Transfection efficiency detection: 20 μL of a substrate ONE-Glo™ Luciferase was added into each well of a 96-well all-white ELISA plate, and after 1 min, detection was performed by a multifunctional or multimode microplate reader.

B16-OVA melanoma cells [4] = assay: OVA mRNA LNP vaccine, in-vivo immunity and tumor treatment (Embodiment 23); design: species or system C57BL/6 mice; conditions: B16-OVA tumor-bearing mice, two intramuscular injections of LNP with 5 μg OVA-mRNA, 7 days apart
Procedure: Preparation method: the amino lipid compounds of the disclosure, DSPC, cholesterol and PEG2000-DMG were mixed according to a mole ratio of 50:10:38.5:1.5 in absolute ethyl alcohol. OVA mRNA was dissolved in a sodium acetate buffer solution (50 nM, pH=4.0). The ratio of the ethyl alcohol solution to the acetate buffer solution (50 nM, pH=4.0) was controlled to be 1:3 by using two micro-injection pumps to prepare a coarse solution of the lipid nanoparticles in a micro-fluidic chip. Then, dialysis was performed for 6 h under the conditions of 1×PBS and temperature control at 4° C. by using a dialysis cassettes or box (MWCO 20,000). Before use, filtration was performed by a 0.22 μm microporous filtering membrane. A mass ratio of the amino lipid compound to OVA mRNA was about 8:1.
as §1
as §2, with “containing 5” for “containing 1”, “euthanasia.” for “euthanasia. Additionally, 60% of mice (E7C71A9 group) and 40% of mice (E6C71A12 group) respectively reached the complete relieving effect.”

Row | SMILES | Luciferase luminescence intensity (BMDC primary cells [3]) | further results
1 | CCCCCCCCCC(COC(=O)C(CCCCCC)CCCCCCCC)OC(=O)CCCCCN(C)C (centres unmarked) [E6C71A12] |  | Luciferase luminescence intensity (BMDC primary cells [1]): 7.3E+ 04; mice that reached the complete relieving effect (B16-OVA melanoma cells [2]): 40%; result (survival curve, FIG. 4) compared with MC3 group (B16-OVA melanoma cells [2]): obviously superior to that of MC3 group; tumor growth speed compared with MC3 group (FIG. 3) (B16-OVA melanoma cells [2]): obviously lower than that of MC3 group
2 | CCCCCCCCCCC(COC(=O)C(CCCCCCCC)CCCCCCCC)OC(=O)CCCCN(C)C (centres unmarked) [E7C115A11] | 2.4E+05 | mice tumors completely disappeared (B16-OVA melanoma cells [4]): 90%; survival rate (B16-OVA melanoma cells [4]): 100%; survival rate compared with MC3 group (FIG. 6) (B16-OVA melanoma cells [4]): obviously superior to that of MC3 group; tumor growth speed compared with MC3 group (FIG. 5) (B16-OVA melanoma cells [4]): obviously lower than that of MC3 group
3 | CCCCCCCCCCCCCC(COC(=O)C(CCCCCCC)CCCCCCC)OC(=O)CCCCN(C)C (centres unmarked) [E10C114A11] | 7.6E+04 | 
4 | CCCCCCCCCCCCCC(COC(=O)C(CCCCCCCC)CCCCCCCC)OC(=O)CCCN(C)C (centres unmarked) [E10C115A9] | 4.4E+04 | 
5 | CCCCCCCCCCCCCC(COC(=O)C(CCCCCCCC)CCCCCCCC)OC(=O)CCCCN(C)C (centres unmarked) [E10C115A11] | 8.2E+04 | 
6 | CCCCCCCCCCCCCC(COC(=O)CC(CCCCCCC)CCCCCCC)OC(=O)CCCN(C)C (centres unmarked) [E10C128A9] | 3.8E+04 | 
7 | CCCCCCCCCCCCCC(COC(=O)CC(CCCCCCC)CCCCCCC)OC(=O)CCCCN(C)C (centres unmarked) [E10C128A11] | 4.7E+04 | 
8 | CCCCCCCCCCCCCCC(COC(=O)C(CCCCC)CCCCCCCCC)OC(=O)CCCN(C)C (centres unmarked) [E11C109A9] | 4.3E+04 | 
9 | CCCCCCCCCCCCCCC(COC(=O)C(CCCCC)CCCCCCCCC)OC(=O)CCCCN(C)C (centres unmarked) [E11C109A11] | 4.8E+04 | 
10 | CCCCCCCCCCCCCCC(COC(=O)C(CCCCCCC)CCCCCCC)OC(=O)CCCN(C)C (centres unmarked) [E11C114A9] | 4.5E+04 | 
11 | CCCCCCCCCCCCCCC(COC(=O)C(CCCCCCC)CCCCCCC)OC(=O)CCCCN(C)C (centres unmarked) [E11C114A11] | 6.5E+04 | 
12 | CCCCCCCCCCCCCCC(COC(=O)C(CCCCCCCC)CCCCCCCC)OC(=O)CCCN(C)C (centres unmarked) [E11C115A9] | 4.9E+04 | 
13 | CCCCCCCCCCCCCCC(COC(=O)C(CCCCCCCC)CCCCCCCC)OC(=O)CCCCN(C)C (centres unmarked) [E11C115A11] | 6.3E+04 | 
14 | CCCCCCCCCCCCCCC(COC(=O)CC(CCCCCC)CCCCCCCC)OC(=O)CCCN(C)C (centres unmarked) [E11C126A9] | 3.6E+04 | 
15 | CCCCCCCCCCCCCCC(COC(=O)CC(CCCCCCC)CCCCCCC)OC(=O)CCCN(C)C (centres unmarked) [E11C128A9] | 3.9E+04 | 
16 | CCCCCCCCCCCCCCC(COC(=O)CC(CCCCCCC)CCCCCCC)OC(=O)CCCCN(C)C (centres unmarked) [E11C128A11] | 4.2E+04 | 
